Laboratory results taken from article PMC6768041 (Chemistry Central Journal, 2018).

Experiments:
MAO-B = settings: at high concentrations 100 µM; cited from earlier work
hMAO-A [1] = target: T1, hMAO-A (Homo sapiens, UniProt P21397); assay: hMAO-A inhibition, Amplex Red fluorometric assay; format: biochemical; settings: for Selectivity index: IC50 (MAO-A)/IC50 (MAO-B); for IC50: recombinant hMAO-A, p-tyramine substrate, mean SEM;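 as to all read-outs here: recombinant human MAO-A and MAO-B from baculovirus-infected insect cell microsomes, H2O2 formation detected fluorometrically via Amplex Red with horseradish peroxidase, background from enzyme-free wells subtracted, distilled water negative control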
T1 construct: host or cells: insect cells (BTI-TN-5B14), recombinant baculovirus
T1 sequence (P21397 1-527): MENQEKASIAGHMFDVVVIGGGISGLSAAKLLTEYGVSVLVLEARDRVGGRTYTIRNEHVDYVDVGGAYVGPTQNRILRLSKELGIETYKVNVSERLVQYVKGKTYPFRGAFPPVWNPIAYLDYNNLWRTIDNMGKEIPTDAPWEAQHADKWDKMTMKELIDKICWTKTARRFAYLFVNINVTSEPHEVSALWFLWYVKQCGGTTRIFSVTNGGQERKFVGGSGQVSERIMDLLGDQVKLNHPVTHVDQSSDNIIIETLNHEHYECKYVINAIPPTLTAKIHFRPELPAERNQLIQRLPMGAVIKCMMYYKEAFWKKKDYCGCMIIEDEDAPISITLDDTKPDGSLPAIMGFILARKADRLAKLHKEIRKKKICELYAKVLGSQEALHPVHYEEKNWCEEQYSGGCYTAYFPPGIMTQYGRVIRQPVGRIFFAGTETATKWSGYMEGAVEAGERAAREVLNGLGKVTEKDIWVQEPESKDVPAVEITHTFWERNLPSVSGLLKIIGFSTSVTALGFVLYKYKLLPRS
Description: (§3) The biological hMAO activity evaluation of the test drugs was examined by quantifying their action on the generation of H2O2 by p-tyramine (general substrate for hMAO-B and hMAO-A), utilizing the Amplex Red MAO assay kit (Sigma USA) and MAO isoforms (microsomal) obtained from insect cells (BTI-TN-5B14) expressed as recombinant baculovirus consisting cDNA probes for hMAO-A or hMAO-B. Reactions were monitored by thin layer chromatography TLC executed over silica gel precoated plates (0.25 mm) purchased from Merck, envisioned of single spots was carried in iodine and UV chambers, in mobile media TLC- Benzene:Chloroform (7:3).
(§4) All synthesized compounds were evaluated for their capability to inhibit the MAO-A and MAO-B isoforms of human MAO by a fluorometric method. The MAO inhibitory property of the test compounds was examined with the recombinant human enzymes using an Amplex Red Monoamine Oxidase Assay Kit (Sigma USA). The incessant peroxidase-linked photometric assay was performed on the fluorometer. […] Distilled water was used as a negative control. In brief, 0.1 mL of sodium phosphate buffer (0.05 M, pH 7.4) with the test new compounds/reference inhibitors in different concentrations and sufficient quantity of recombinant hMAO-A or hMAO-B requisite and in step to complete our investigational protocol with the equal reaction velocity, (hMAO-A: 1.1 mg protein; explicit activity: 150 nmol of p-tyramine oxidized to p-hydroxyphenylacetaldehyde/min/mg protein; hMAO-B: 7.5 mg protein; explicit activity: 22 nmol of p-tyramine changed/min/mg protein) were incubated for 15 min at 37 °C, placed in the dark fluorometric compartment. After incubation, the effect was attained through the addition of 200 mM Amplex Red reagent (final concentrations), 1 mM p-tyramine, and 1 U/mL horseradish peroxidase. Finally, the generation of hydrogen peroxide and, subsequently, of resorufin was measured at 37 °C in fluorescence reader (λemission, 585 nm, λexcitation, 530 nm) after 15 min, by the time fluorescence amplified linearly. All the control experiments were performed concurrently by changing the reference inhibitors and test compounds with suitable dilutions in the solvents. Moreover, the activity of abovementioned evaluated compounds to alter the fluorescence produced in the combination reaction by (e.g. for reacting with Amplex Red reagent directly) non-enzymatic inhibition was identified by addition of these compounds to solutions having just the Amplex Red reagent in a sodium phosphate buffer. […] The fluorescence reading was computed by subtraction of the background activity and was evaluated from wells with all components not including the hMAO isoforms that was substituted by a sodium phosphate buffer solution. All data was processed in Microsoft Excel, to calculate IC50 values.

hMAO-B [2] = target: T2, hMAO-B (Homo sapiens, UniProt P27338); assay: hMAO-B inhibition, Amplex Red fluorometric assay; format: biochemical; settings: recombinant hMAO-B, p-tyramine substrate; mean SEM
T2 construct: host or cells: insect cells (BTI-TN-5B14), recombinant baculovirus
T2 sequence (P27338 1-520): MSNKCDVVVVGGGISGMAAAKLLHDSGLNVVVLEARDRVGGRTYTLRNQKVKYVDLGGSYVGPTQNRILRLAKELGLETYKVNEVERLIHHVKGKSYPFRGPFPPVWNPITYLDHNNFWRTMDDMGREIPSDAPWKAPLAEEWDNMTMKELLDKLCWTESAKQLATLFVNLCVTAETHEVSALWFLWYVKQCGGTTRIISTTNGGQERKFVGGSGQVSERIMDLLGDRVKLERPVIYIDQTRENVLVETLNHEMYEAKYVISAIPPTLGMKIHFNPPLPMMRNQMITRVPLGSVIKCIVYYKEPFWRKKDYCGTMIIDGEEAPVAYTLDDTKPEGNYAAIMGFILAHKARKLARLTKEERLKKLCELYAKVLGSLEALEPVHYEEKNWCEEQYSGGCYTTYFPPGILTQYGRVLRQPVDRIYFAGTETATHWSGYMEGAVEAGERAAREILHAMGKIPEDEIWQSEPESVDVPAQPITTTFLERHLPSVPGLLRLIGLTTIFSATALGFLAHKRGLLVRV
Description: as §3, §4

[3] = DPPH radical scavenging assay; settings: mean ± SEM, n = 3
Description: DPPH (2,2-diphenyl-1-picryl-hydrazyl-hydrate) free radical process is an antioxidant assay based on electron-transfer that turns violet color in ethanol. The antioxidant activity was based on free radical scavenging effect towards stable DPPH• radical upon spectrophotometric reaction according to the method reported in the literature. Briefly, solutions of synthesized compounds were prepared in fifty milliliters of various concentrations (25, 50, 75, and 100) µg/mL dissolved in methanol, was added to 5 mL of a 0.004% methanol solution of DPPH. The stock solution was prepared with 0.01% DPPH• in ethanol/water (1:1). While sample solutions were prepared as 5 mL DPPH• solution was mixed with 5 mL ascorbic acid solution then shaken vigorously and kept in the dark at 37 °C. The samples were incubated at the 37 °C temperature for 30 min in the dark chamber subsequently, absorbance was measured. The marketable recognized antioxidant, ascorbic acid was utilized for contrast or as a positive control. Initially, the blank spectrum for ethanol/water was recorded subsequently the spectrophotometric titration was carried out with various concentrations of synthesized compounds. The absorbance was recorded at 517 nm with UV/Vis Epoch ELISA reader, and antioxidant activity was measured as a decrease in absorbance of DPPH•. The IC50 values of free radical DPPH, based on control reading were calculated by the following equation. %inhibition of DPPH radical=Abr-Aar/Abr×100 where Abr is the absorbance prior to reaction and Aar is the absorbance after reaction with DPPH•.

[4] = Hydrogen peroxide scavenging (H2O2) assay; settings: mean ± SEM, n = 3; read-out: H2O2 radical scavenging IC50
Description: Amongst the reactive oxygen species (ROS), H2O2 is an essential radical as even though it is not lethal of its own accord, but can be changed to further even highly toxic radicals, for instance, OH^• by hypochlorous acid or Fenton reaction by the oxidases enzymes. A solution of H2O2 (40 µM) was added in phosphate buffer saline ([…] pH 7.4). Different quantities of test and references compounds in DMSO were added to 2 mL of hydrogen peroxide solution in buffer solution. Subsequently, upon to 10 min, the absorbance was calculated at 230 nm against a blank solution including phosphate buffer without H2O2 [31]. The percentage of scavenging H2O2 was estimated by the formula in this way: %ScavengingH2O2=AS-AT/Ai×100 where AS is the absorbance of control and AT is the absorbance of the test.

MAO-A = settings: cited from earlier work
monoamine oxidase-B = settings: cited from earlier work
hMAO-B [5] = target: T2, hMAO-B; assay: Enzyme kinetics of MAO-B (Lineweaver–Burk plots); format: biochemical; settings: several inhibitor concentrations, tyramine substrate
Description: (§1) A set of Lineweaver–Burk plots was constructed in the presence and absence of different concentrations of compound 7 and 5 for hMAO-A and hMAO-B respectively. The graph comprises of five plots, every plot raised by quantifying MAO-B and MAO-A catalytic rate at various concentrations of substrate (0.5–5.0 µM).
(§2) Kinetic constants of steady-state (Vmax, maximum rate, and Km, Michaelis constant,) were measured by studying the effects of substrate concentration on the primary rate of reaction of MAO-A or MAO-B in absence and presence of compounds at diverse concentrations. To examine the mode of action by synthesized derivatives all of them were solubilized in dimethyl sulfoxide, with the concentration of 1%, and utilized in a wide concentration range. Construction of Lineweaver–Burk plots illustrated the mode of MAO inhibition. Selectivity index SI (Ki (MAO-A)/Ki (MAO-B)) was also computed. Enzyme kinetics for the interaction of the compounds with the MAO enzymes was computed on the GraphPad Prism 7 software.

hMAO-A [6] = target: T1, hMAO-A; assay: Enzyme kinetics of MAO-A (Lineweaver–Burk plots); format: biochemical; settings: tyramine substrate
Description: as §1, §2

rMAO-B = settings: cited from earlier work
hMAO-A [7] = target: T1, hMAO-A; settings: cited from earlier work
rMAO-A = settings: cited from earlier work

SMILES	Selectivity index (hMAO-A [1])	IC50 (hMAO-A [1])	IC50 (hMAO-B [2])	IC50 [3]	IC50 [4]	melting point	further results
O=C(/C=C/c1ccc(O)c(O)c1)OCCc1ccccc1 [CAPE, caffeic acid phenethyl ester]							MAO-B inhibition in words (MAO-B): inhibiting MAO-B
O=C(O)/C=C/c1ccc(O)c(O)c1 [Caffeic acid, reference compound]	0.512	11.72 ± 0.044 µM	22.88 ± 0.009 µM	9.679 ± 0.013 µM	8.868 ± 0.011 µM		IC50 (MAO-A): > 1000 µM; Inhibition of MAO-A activity (MAO-A): up to 40.4%; Monoamine oxidase-B inhibition in words (monoamine oxidase-B): did not produce significant monoamine oxidase-B inhibition
O=C(/C=C/c1ccc(O)c(O)c1)Nc1ccc(Cl)cc1[N+](=O)[O-] [Compound 2, (E)-N-(4-chloro-2-nitrophenyl)-3-(3,4-dihydroxyphenyl)acrylamide]	0.191	8.51 ± 0.017 µM	44.42 ± 0.014 µM	8.09 ± 0.042 µM	8.544 ± 0.015 µM	200 to 202 °C	
O=C(/C=C/c1ccc(O)c(O)c1)Nc1ccc(Br)cc1 [Compound 3, (E)-N-(4-bromophenyl)-3-(3,4-dihydroxyphenyl)acrylamide]	0.838	17.72 ± 0.006 µM	21.14 ± 0.025 µM	13.56 ± 0.003 µM	12.56 ± 0.021 µM		
O=C(/C=C/c1ccc(O)c(O)c1)Nc1cccc2ccccc12 [Compound 5, (E)-3-(3,4-dihydroxyphenyl)-N-(naphthalen-1-yl)acrylamide]	4.653	50.26 ± 0.035 µM	10.8 ± 0.024 µM	20.8 ± 0.003 µM	17.64 ± 0.005 µM	176 to 176.3 °C	Vmax in Lineweaver–Burk plot (hMAO-B) (hMAO-B [5]): same Vmax value at several concentrations
CCNC(=O)/C=C/c1ccc(O)c(O)c1 [Compound 10, (E)-3-(3,4-dihydroxyphenyl)-N-ethylacrylamide]	1.947	25.22 ± 0.015 µM	12.95 ± 0.046 µM	11.34 ± 0.078 µM	11.39 ± 0.042 µM		
O=C(/C=C/c1ccc(O)c(O)c1)Oc1ccc2ccccc2c1 [Compound 11, (E)-naphthalen-2-yl 3-(3,4-dihydroxyphenyl)acrylate]	1.233	24.34 ± 0.011 µM	21.48 ± 0.056 µM	12.95 ± 0.031 µM	11.34 ± 0.045 µM	176 to 176.9 °C	
O=c1oc2c(O)c(O)cc3c(=O)oc4c(O)c(O)cc1c4c23 [Ellagic acid]							MAO inhibition value rMAO-B (rMAO-B): 412.24 nM rMAO-B
O=C(O)c1cc(O)c(O)c(O)c1 [Gallic acid]							MAO inhibition value hMAO-A (hMAO-A [7]): 9.49 ± 0.83 hMAO-A µM
O=C1O[C@H]([C@@H](O)CO)C(O)=C1O [L-Ascorbic acid, reference compound]					8.12 ± 0.082 µM		
O=C(O)c1ccc(O)c(O)c1 [Protocatechuic acid]							MAO inhibition value rMAO-A (rMAO-A): 300 µM; MAO inhibition value rMAO-B (rMAO-B): 2411 µM
O=C(O)/C=C/c1ccccc1 [Trans-Cinnamic acid]							MAO inhibition value rMAO-A (rMAO-A): 6.47 ± 0.73 µM; MAO inhibition value rMAO-B (rMAO-B): 1.21 ± 0.071 µM
O=C(/C=C/c1ccc(O)c(O)c1)O[C@H](Cc1ccc(O)c(O)c1)C(=O)O [rosmarinic acid]							Monoamine oxidase-B inhibition in words (monoamine oxidase-B): did not produce significant monoamine oxidase-B inhibition

Continued by falling IC50 [4], values first:

Selectivity index (hMAO-A [1])	IC50 (hMAO-A [1])	IC50 (hMAO-B [2])	IC50 [3]	IC50 [4]	melting point	SMILES	further results
1.252	20.36 ± 0.002 µM	16.25 ± 0.035 µM	11.34 ± 0.001 µM	21.69 ± 0.034 µM	150 to 151 °C	COc1cc(C=O)ccc1OC(=O)/C=C/c1ccc(O)c(O)c1 [Compound 6, (E)-4-formyl-2-methoxyphenyl 3-(3,4-dihydroxyphenyl)acrylate]	MAO isoform selectivity in words (hMAO-A [1]; hMAO-A vs hMAO-B): selective for hMAO-B
0.453	22.02 ± 0.018 µM	48.54 ± 0.077 µM	15.37 ± 0.054 µM	14.65 ± 0.026 µM		CC1CCC(C(C)C)C(OC(=O)/C=C/c2ccc(O)c(O)c2)C1 (stereo not shown) [Compound 12, (E)-2-isopropyl-5-methylcyclohexyl 3-(3,4-dihydroxyphenyl)acrylate]	
0.291	7.03 ± 0.022 µM	24.14 ± 0.017 µM	11.22 ± 0.012 µM	12.78 ± 0.024 µM	161 to 161.7 °C	C=CCc1ccc(OC(=O)/C=C/c2ccc(O)c(O)c2)c(OC)c1 [Compound 7, (E)-4-allyl-2-methoxyphenyl 3-(3,4-dihydroxyphenyl)acrylate]	Mode of inhibition (hMAO-A) (hMAO-A [6]): competitive inhibition mode
0.724	19.75 ± 0.066 µM	27.26 ± 0.072 µM	11.94 ± 0.025 µM	11.88 ± 0.008 µM	182 to 182.6 °C	Cc1ccc(C(C)C)cc1OC(=O)/C=C/c1ccc(O)c(O)c1 [Compound 8, (E)-5-isopropyl-2-methylphenyl 3-(3,4-dihydroxyphenyl)acrylate]	
0.379	10.33 ± 0.012 µM	27.25 ± 0.004 µM	10.57 ± 0.004 µM	9.907 ± 0.014 µM	198 to 198.4 °C	O=C(/C=C/c1ccc(O)c(O)c1)Oc1cccc(O)c1 [Compound 9, (E)-3-hydroxyphenyl 3-(3,4-dihydroxyphenyl)acrylate]	
0.319	18.47 ± 0.007 µM	57.88 ± 0.029 µM	9.19 ± 0.001 µM	9.486 ± 0.017 µM		O=C(/C=C/c1ccc(O)c(O)c1)Nc1cccc(F)c1 [Compound 4, (E)-3-(3,4-dihydroxyphenyl)-N-(3-fluorophenyl)acrylamide]	
0.209	8.87 ± 0.005 µM	42.34 ± 0.077 µM	6.39 ± 0.007 µM	6.292 ± 0.007 µM	230 to 231 °C	O=C(/C=C/c1ccc(O)c(O)c1)Nc1ccc([N+](=O)[O-])cc1Cl [Compound 1, (E)-N-(2-chloro-4-nitrophenyl)-3-(3,4-dihydroxyphenyl)acrylamide]	
